This is an account of results in publication PMC9241943, “LcCCL28-25, Derived from Piscine Chemokine, Exhibits Antimicrobial Activity against Gram-Negative and Gram-Positive Bacteria In Vitro and In Vivo” (Microbiology Spectrum, 2022).

One assay has as its system Gram-negative bacteria. Description: Time-kill curves (4x MIC). The settings on record: 4× MIC. Type of assay: cell-based. On the procedure: (§1) Consistent with previous reports, time-kill curves of lcCCL28-25 against Gram-negative and Gram-positive bacteria were performed under 4× MIC conditions ([44]). Bacteria were incubated to the logarithmic growth stage. Bacterial cells in the logarithmic growth phase were diluted to achieve log(CFU/mL) values of ~5 to 6 and incubated with lcCCL28-25 for 1, 2, 4, 8, 16, 30, 60, 120, and 240 min. At each time point, 50-μL amounts of the samples were diluted to different concentrations and plated onto agar plates. After overnight incubation, the numbers of colonies on the plates were counted.

The next assay relates to Gram-positive bacteria. As to the kind of experiment: Time-kill curves (4x MIC). Type of assay: cell-based. As to conditions: 4× MIC. As to the method:
as §1

The test system of assay [1] is S. aureus ATCC 25923 cells. As to the kind of experiment: Scanning and transmission electron microscopy. Type of assay: cell-based, Staphylococcus aureus. As to conditions: S. aureus ATCC 25923, 5 μg/mL, 15 min. As to the method: E. coli ATCC 25922 and S. aureus ATCC 25923 cells were cultured and coincubated with or without lcCCL28-25 as described above for fluorescence microscopy.
For scanning electron microscopy (SEM), bacterial cells were fixed with 2.5% glutaraldehyde in PBS (pH 7.35) and attached to 12-mm cover glasses by centrifugation at 75 × g for 6 min using a Cytospin 2 centrifuge (Thermo Fisher Scientific, Schwerte, Germany). Then, cover glasses with attached bacteria were postfixed in 1% aqueous OsO4 for 30 min, dehydrated in a sequence of increasing ethanol concentrations (70%, 80%, and 100%), and critical point dried in a CPD030 (Leica Microsystems, Vienna, Austria). Next, dried samples were mounted on aluminum stubs using conductive carbon tabs, coated with 4 nm of platinum in a CCU-010 sputtering device (Safematic, Bad Ragaz, Switzerland), and imaged by a Supra 50 VP SEM at an acceleration voltage of 2 kV using the in-lens secondary electron detector (Zeiss, Oberkochen, Germany) ([53]).
For transmission electron microscopy (TEM), bacterial cells were obtained by centrifugation after overnight fixation in 2.5% glutaraldehyde (pH 7.35, in PBS) at 4°C. […]

For the next assay, the system named is E. coli ATCC 25922. As to the kind of experiment: SYTOX green membrane permeability assay. The class given is cell-based, Escherichia coli. The settings on record: E. coli ATCC 25922, 5 μM SYTOX green, read every 1 min. As to the method:
(§2) The SYTOX green staining assay was performed to assess peptide-associated membrane damage ([47], [52]). E. coli ATCC 25922 and S. aureus ATCC 25923 cells in the mid-logarithmic phase were collected, washed thrice, and resuspended (5 × 10^7 CFU/mL) in buffer B (10 mM Tris-HCl, pH 7.4, at 25°C). The bacterial suspensions were mixed with 5 μM SYTOX green and incubated for 15 min at room temperature in the dark. Then, the mixtures were added to black, clear-bottom 96-well plates at a density of 100 μL/well. After peptide addition, SYTOX green uptake was monitored using an EnSpire multimode plate reader (PerkinElmer, Singapore) with an excitation wavelength of 485 nm and an emission wavelength of 520 nm. Each measurement interval was 1 min, totaling 30 to 60 times. Melittin was used as the positive control, while bovine serum albumin (BSA) was the negative control.

Another assay has as its system S. aureus ATCC 25923. Description: SYTOX green membrane permeability assay. The settings on record: S. aureus ATCC 25923, 5 μM SYTOX green, read every 1 min. Type of assay: cell-based, Staphylococcus aureus. As to the method:
as §2

Residues, ends and D or L forms follow the SMILES beside them.

For `CSCC[C@H](NC(=O)[C@H](Cc1c[nH]c2ccccc12)NC(=O)[C@H](CCCCN)NC(=O)[C@@H]1CCCN1C(=O)[C@H](Cc1c[nH]cn1)NC(=O)[C@H](C)N)C(=O)N[C@@H](CCC(=O)O)C(=O)N[C@H](C(=O)N[C@H](C(=O)N[C@@H](CCCNC(=N)N)C(=O)N[C@@H](CO)C(=O)N[C@@H](CCCNC(=N)N)C(=O)N[C@@H](CCC(N)=O)C(=O)N[C@@H](CCCNC(=N)N)C(=O)N[C@@H](CCCCN)C(=O)N[C@@H](CCCCN)C(=O)N[C@@H](CCCCN)C(=O)N[C@@H](Cc1c[nH]cn1)C(=O)N[C@@H](CC(N)=O)C(=O)N[C@@H](CCCCN)C(=O)N[C@@H](CCCNC(=N)N)C(=O)N[C@@H](CCCNC(=N)N)C(=O)N[C@@H](C)C(=O)N[C@H](C(=O)N[C@@H](Cc1ccc(O)cc1)C(=O)O)[C@@H](C)O)C(C)C)C(C)C` [lcCCL28-25] (H-AHPKWMEVVRSRQRKKKHNKRRATY-OH; N-terminus and C-terminus assumed), the entries for the “time for CFU counts to be reduced by more than half” value in the assay with Gram-negative bacteria and in the assay on Gram-positive bacteria were “more than 1 h” and no more than 10 min, respectively. Further, the “membrane structure (TEM)” value in assay [1] is given as “significant alterations in membrane structure”. Further, the “SYTOX green fluorescence intensity” value is “did not increase significantly in a short time (20 min)” with E. coli ATCC 25922 and “increased rapidly within 20 min” with S. aureus ATCC 25923.
